Patent US9078929B2, “ε-Polylysine conjugates and the use thereof” (Merck Patent GmbH, priority 2009, dated 2015)

Legend:
[1] = Comparative planar scintigraphs, mouse model; format: in vivo
Excerpt: (§1) The uptake of ^99mTc-MAG3 and of ^99mTc-DMSA are compared with the uptake of (ε-L-polylysine-DOTA, loaded with ^111In) in the rat and mouse model in planar scintigraphs.

[2] = Comparative planar scintigraphs, rat model; format: in vivo
Excerpt: as §1

proteases = details: in contrast to α-polylysine; cited from earlier work

Compound | kidney to background ratio compared with ε-L-polylysine-DOTA loaded with 111In [1] | kidney to background ratio compared with ε-L-polylysine-DOTA loaded with 111In [2] | enzymatic degradation by proteases (proteases)
O=C(O)CNC(=O)CNC(=O)CNC(=O)CS [^99mTc-MAG3, mercaptoacetyltriglycine, metal not drawn] | worse kidney to background ratio | worse kidney to background ratio | 
ε-polylysine |  |  | not enzymatically degraded
